Counter-ions that a name gives are not always drawn.

The values below come from US20060270684A1, “Crystalline forms of ziprasidone mesylate” (priority 2005, published 2006).

Data set [1] is described as follows: Water absorption of Form I at room temperature for 7 days under various relative humidity conditions. Format: physicochemical. As for the experimental part:
Copper radiation of 1.5418 Å was used. A round aluminum sample holder with zero background was used. All peak positions are within ±0.2 degrees two theta. Karl Fisher analysis was performed according to the known art.

Data set [2] in a line: Transformations by heat (XRD and Karl Fisher after heating). The format is physicochemical. As to the method:
(§1) X-Ray powder diffraction data were obtained using a SCINTAG powder X-Ray diffractometer model X'TRA equipped with a solid state detector. Copper radiation of 1.5418 Å was used. A round aluminum sample holder with zero background was used. All peak positions are within ±0.2 degrees two theta.
(§2) Karl Fisher analysis was performed according to the known art.

Data set [3] in a line: Water absorption of Form IX after exposure for 10 days to 100% relative humidity at room temperature. The format is physicochemical. As for the experimental part: The present invention provides non-hygroscopic crystalline form of ziprasidone mesylate Form IX. Form IX was tested for water absorption after exposure for 10 days to 100% relative humidity at room temperature, as summarized in the following table:
as §2
Ziprasidone mesylate Form IX was exposed to 100% humidity at room temperature for 10 days. Before the exposure the water content was measured to be about 4.8%, while after the exposure the water content was measure to be about 5.0% water. The difference between water content before and after the exposure to 100% humidity is 0.2%.

The nature of data set [4]: Water absorption of Form XVIII, 7 days at 30° C. under humidity. Format: physicochemical. As for the experimental part: as §1, §2
For data set [5] the following is noted: aqueous medium at ambient temperature; cited from earlier work.
[6] abbreviates: 60% RH, room temperature, 7 days.
Setting [7] is: 80% RH, room temperature, 7 days.
Setting [8] is: 100% RH, room temperature, 7 days.
Where [9] appears, read: heated at TEMP. 90, 30 min, mesylate dihydrate.
[10] abbreviates: heated at TEMP. 120, 30 min, mesylate dihydrate.
Setting [11] is: 100% humidity at room temperature for 10 days.

With `O=C1Cc2cc(CCN3CCN(c4nsc5ccccc45)CC3)c(Cl)cc2N1` [Form I, ziprasidone mesylate], the “crystal form (by XRD)” value in data set [1] (setting [6]), in data set [1] (setting [7]), in data set [1] (setting [8]) and in data set [1] (Initial) was “Form I” each time. Also, the water content (by Karl Fisher) is 2.5% in data set [1] (setting [6]), 3.1% in data set [1] (setting [7]), 4.6% in data set [1] (setting [8]) and 2.3% in data set [1] (Initial). In data set [1] (room temperature, 7 days, various relative humidity conditions), the “stability when tested for water absorption” value is “stable”.
With `O=C1Cc2cc(CCN3CCN(c4nsc5ccccc45)CC3)c(Cl)cc2N1` [Form II, ziprasidone mesylate], in data set [2] (heated at TEMP. 90, 30 min), the “RESULT (XRD)” value is “Form II”.
For the molecule “ziprasidone mesylate dihydrate [Dihydrate needle]”, in data set [2] (setting [9]), the K.F. came to 3% and the “RESULT (XRD)” value is “Dihydrate needle”. Moreover, in data set [2] (setting [10]), the K.F. amounted to 0.5% and the “RESULT (XRD)” value is “Dihydrate needle”.
In data set [3] (100% RH at RT, 10 days), `O=C1Cc2cc(CCN3CCN(c4nsc5ccccc45)CC3)c(Cl)cc2N1` [Form IX, ziprasidone mesylate] returned a water content (by Karl Fisher) of 5%. In data set [3] (setting [11]), the “difference between water content before and after the exposure” value is recorded as 0.2%; the “water content after the exposure” value is reported as “about 5.0%”. In data set [3] (Initial), the water content (by Karl Fisher) is 4.7%. Moreover, the “water content before the exposure” value in data set [3] (before exposure to 100% humidity) is given as “about 4.8%”. Also, in data set [3] (non-hygroscopic = does not absorb more than 0.2% of water at 80% humidity, 25° C., 24 hours), the hygroscopicity entry was “non-hygroscopic”.
On to `O=C1Cc2cc(CCN3CCN(c4nsc5ccccc45)CC3)c(Cl)cc2N1` [Form XVIII, ziprasidone mesylate], for which the Water content (by KF) came to 8.2% in data set [4] (80% RH, 7 days at 30° C.); 9.1% in data set [4] (100% RH, 7 days at 30° C.); 2% in data set [4] (Initial). Also, the “crystal form (by XRD)” value is on record as “Trihydrate” in data set [4] (80% RH, 7 days at 30° C.); “transformation to trihydrate” in data set [4] (80% RH, 7 days at 30° C., listed as form XVIII); “Trihydrate” in data set [4] (100% RH, 7 days at 30° C.); “XVIII” in data set [4] (Initial). Moreover, the “water content determined by Karl Fisher” value in data set [4] (80% humidity for 7 days at 30° C.) is on record as “about 8.2%”.
For the molecule ziprasidone mesylate trihydrate, the “thermodynamic stability among the four crystalline forms of ziprasidone mesylate” value in data set [5] is “most thermodynamically stable form”.
As for “ziprasidone mesylate dihydrate [Dihydrate Lath]”, the K.F. in data set [2] (setting [9]) is 3.1%; in data set [2] (setting [10]), 0.4%; in data set [2] (heated at TEMP. 140, 30 min) it was 0.3%; in data set [2] (heated at TEMP. 160, 30 min), 0.2%; in data set [2] (t = 0 (before heating)), “(t = 0 6.5%)”. Further, the “RESULT (XRD)” value in data set [2] (setting [9]) was “Dihydrate Lath”; in data set [2] (setting [10]), “Dihydrate Lath”; in data set [2] (heated at TEMP. 140, 30 min), “Dihydrate Lath”; in data set [2] (heated at TEMP. 160, 30 min, listed as Dihydrate lath, mesylate dihydrate), “Transformation from dihydrate lath to Form VI”; in data set [2] (heated at TEMP. 160, 30 min, mesylate dihydrate), “Form VI”.
